Assay results from patent US20030172478A1, “Bipyrrolinonylidene-type compound, colorant therewith, and method of producton thereof” (DAINIPPON INK AND CHEMICALS, INC., priority 2002, published 2003).

Experiments:
[1] = solubility of the products in solvents; format: physicochemical
[2] = background statement; cited from earlier work

Compound | solubility in dimethyl sulfoxide ([1]; solvent dimethyl sulfoxide) | solubility in dimethylformamide ([1]; solvent dimethylformamide) | solubility in ethanol ([1]; solvent ethanol) | solubility in water and organic solvents [2]
CCOC(=O)C1=C(c2ccccc2)NC(=O)/C1=C1/C(=O)NC(c2ccccc2)=C1C(=O)OCC [diethyl bipyrrolinonylidenedicarboxylate] | soluble | soluble | slightly soluble | –
O=C1NC(c2ccccc2)=C/C1=C1/C=C(c2ccccc2)NC1=O [formula (b), bipyrrolinonylidene] | – | – | – | poor solubility
